Columns and labels:
[1] = target: human GLP-1R (Homo sapiens, UniProt P43220, G168S); assay: CHO GLP-1R Clone H6 - Assay 1 (HTRF cAMP agonist assay); type: cell-based; conditions: for EC50: CHO GLP-1R Clone H6, cAMP HTRF, geometric mean; for Emax / Assay 1 Emax (%): CHO GLP-1R Clone H6, arithmetic mean, relative to saturating GLP-1 (1 μM)
Experimental: GLP-1R-mediated agonist activity was determined with a cell-based functional assay utilizing an HTRF (Homogeneous Time-Resolved Fluorescence) cAMP detection kit (cAMP HI Range Assay Kit; CisBio cat #62AM6PEJ) that measures cAMP levels in the cell. The method is a competitive immunoassay between native cAMP produced by the cells and exogenous cAMP labeled with the dye d2. The tracer binding is visualized by a mAb anti-cAMP labeled with Cryptate. The specific signal (i.e. energy transfer) is inversely proportional to the concentration of cAMP in either standard or experimental sample.
The human GLP-1R coding sequence (NCBI Reference Sequence NP_002053.3, including naturally-occurring variant Gly168Ser) was subcloned into pcDNA3 (Invitrogen) and a cell line stably expressing the receptor was isolated (designated Clone H6).
Cells were removed from cryopreservation, re-suspended in 40 mL of Dulbecco's Phosphate Buffered Saline (DPBS—Lonza Cat #17-512Q) and centrifuged at 800×g for 5 minutes at 22° C. The cell pellet was then re-suspended in 10 mL of growth medium [DMEM/F12 1:1 Mixture with HEPES, L-Gln, 500 mL (DMEM/F12 Lonza Cat #12-719F), 10% heat inactivated fetal bovine serum (Gibco Cat #16140-071), 5 mL of 100× Pen-Strep (Gibco Cat #15140-122), 5 mL of 100×L-Glutamine (Gibco Cat #25030-081) and 500 μg/mL Geneticin (G418) (Invitrogen #10131035)]. A 1 mL sample of the cell suspension in growth media was counted on a Becton Dickinson ViCell to determine cell viability and cell count per mL. The remaining cell suspension was then adjusted with growth media to deliver 2000 viable cells per well using a Matrix Combi Multidrop reagent dispenser, and the cells were dispensed into a white 384 well tissue culture treated assay plate (Corning 3570). The assay plate was then incubated for 48 hours at 37° C. in a humidified environment in 5% carbon dioxide.
Varying concentrations of each compound to be tested (in DMSO) were diluted in assay buffer (HBSS with Calcium/Magnesium (Lonza/BioWhittaker cat #10-527F)/0.1% BSA (Sigma Aldrich cat # A7409-1L)/20 mM HEPES (Lonza/BioWhittaker cat #17-737E) containing 100 μM 3-isobutyl-1-methylxanthin (IBMX; Sigma cat #15879). The final DMSO concentration is 1%.
After 48 hours, the growth media was removed from the assay plate wells, and the cells were treated with 20 μL of the serially diluted compound in assay buffer for 30 minutes at 37° C. in a humidified environment in 5% carbon dioxide. Following the 30 minute incubation, 10 μL of labeled d2 cAMP and 10 μL of anti-cAMP antibody (both diluted 1:20 in cell lysis buffer; as described in the manufacturer's assay protocol) were added to each well of the assay plate. The plates were then incubated at room temperature and after 60 minutes, changes in the HTRF signal were read with an Envision 2104 multi-label plate reader using excitation of 330 nm and emissions of 615 and 665 nm. Raw data were converted to nM cAMP by interpolation from a cAMP standard curve (as described in the manufacturer's assay protocol) and the percent effect was determined relative to a saturating concentration of the full agonist GLP-17-36 (1 μM) included on each plate. EC50 determinations were made from agonist dose-response curves analyzed with a curve fitting program using a 4-parameter logistic dose response equation.

[2] = target: human GLP-1R (Homo sapiens (Human), UniProt P43220, L260F); assay: CHO GLP-1R Clone C6 - Assay 2 (HTRF cAMP agonist assay, low receptor density); conditions: for EC50: read-out: Assay 2 EC50, cAMP HTRF, geometric mean; for Emax: read-out: Assay 2 Emax (%), CHO GLP-1R Clone C6 (low receptor density)
Chain of human GLP-1R (Homo sapiens (Human), UniProt P43220, L260F) (P43220 24-463 L260F): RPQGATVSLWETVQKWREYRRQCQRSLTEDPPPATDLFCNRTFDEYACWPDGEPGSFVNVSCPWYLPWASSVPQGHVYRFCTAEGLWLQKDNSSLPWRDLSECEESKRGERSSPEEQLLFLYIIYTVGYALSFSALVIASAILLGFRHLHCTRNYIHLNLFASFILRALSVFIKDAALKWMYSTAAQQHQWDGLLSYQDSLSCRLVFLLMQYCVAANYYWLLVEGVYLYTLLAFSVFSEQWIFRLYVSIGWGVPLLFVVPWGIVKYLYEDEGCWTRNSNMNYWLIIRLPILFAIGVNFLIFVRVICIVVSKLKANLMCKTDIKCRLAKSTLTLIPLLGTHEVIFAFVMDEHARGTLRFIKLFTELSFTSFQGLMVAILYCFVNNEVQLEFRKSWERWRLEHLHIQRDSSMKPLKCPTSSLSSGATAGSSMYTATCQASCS
Experimental: CHO GLP-1R Clone C6—Assay 2
GLP-1R-mediated agonist activity was determined with a cell-based functional assay utilizing an HTRF (Homogeneous Time-Resolved Fluorescence) cAMP detection kit (cAMP HI Range Assay Kit; Cis Bio cat #62AM6PEJ) that measures cAMP levels in the cell. The method is a competitive immunoassay between native cAMP produced by the cells and exogenous cAMP labeled with the dye d2. The tracer binding is visualized by a mAb anti-cAMP labeled with Cryptate. The specific signal (i.e. energy transfer) is inversely proportional to the concentration of cAMP in either a standard or an experimental sample.
The human GLP-1R coding sequence (NCBI Reference Sequence NP_002053.3, including naturally-occurring variant Leu260Phe) was subcloned into pcDNA5-FRT-TO and a clonal CHO cell line stably expressing a low receptor density was isolated using the Flp-In™ T-Rex™ System, as described by the manufacturer (ThermoFisher).
Cells were removed from cryopreservation, re-suspended in 40 mL of Dulbecco's Phosphate Buffered Saline (DPBS—Lonza Cat #17-512Q) and centrifuged at 800×g for 5 minutes at 22° C. The DPBS was aspirated, and the cell pellet was re-suspended in 10 mL of complete growth medium (DMEM:F12 1:1 Mixture with HEPES, L-Gln, 500 mL (DMEM/F12 Lonza Cat #12-719F), 10% heat inactivated fetal bovine serum (Gibco Cat #16140-071), 5 mL of 100× Pen-Strep (Gibco Cat #15140-122), 5 mL of 100×L-Glutamine (Gibco Cat #25030-081), 700 μg/mL Hygromycin (Invitrogen Cat #10687010) and 15 μg/mL Blasticidin (Gibco Cat # R21001). A 1 mL sample of the cell suspension in growth media was counted on a Becton Dickinson ViCell to determine cell viability and cell count per mL. The remaining cell suspension was then adjusted with growth media to deliver 1600 viable cells per well using a Matrix Combi Multidrop reagent dispenser, and the cells were dispensed into a white 384 well tissue culture treated assay plate (Corning 3570). The assay plate was then incubated for 48 hours at 37° C. in a humidified environment (95% O2, 5% CO2)
Varying concentrations of each compound to be tested (in DMSO) were diluted in assay buffer [HBSS with Calcium/Magnesium (Lonza/BioWhittaker cat #10-527F)/0.1% BSA (Sigma Aldrich cat # A7409-1L)/20 mM HEPES (Lonza/BioWhittaker cat #17-737E)] containing 100 μM 3-isobutyl-1-methylxanthin (IBMX; Sigma cat #15879). The final DMSO concentration in the compound/assay buffer mixture is 1%.
After 48 hours, the growth media was removed from the assay plate wells, and the cells were treated with 20 μL of the serially diluted compound in assay buffer for 30 minutes at 37° C. in a humidified environment (95% O2, 5% CO2). Following the 30 minute incubation, 10 μL of labeled d2 cAMP and 10 μL of anti-cAMP antibody (both diluted 1:20 in cell lysis buffer; as described in the manufacturer's assay protocol) were added to each well of the assay plate. The plates were then incubated at room temperature and after 60 minutes, changes in the HTRF signal were read with an Envision 2104 multi-label plate reader using excitation of 330 nm and emissions of 615 and 665 nm. Raw data were converted to nM cAMP by interpolation from a cAMP standard curve (as described in the manufacturer's assay protocol) and the percent effect was determined relative to a saturating concentration of the full agonist GLP-1 (1 μM) included on each plate. EC50 determinations were made from agonist dose response curves analyzed with a curve fitting program using a 4-parameter logistic dose response equation.

[3] = CHO GLP-1R Clone C6 (low receptor density)
[4] = arithmetic mean, relative to saturating GLP-1 (1 μM)

Chain of human GLP-1R (Homo sapiens, UniProt P43220, G168S) (P43220 24-463 G168S limits assumed): as the sequence (P43220 24-463 L260F) above, with G145S, F237L counted along it

EC50 [1] | Emax [1] | EC50 [2, 3] | Emax [2, 4] | Assay 1 Emax (%) [1] | Assay 2 Emax (%) ([2]; CHO GLP-1R Clone C6 (low receptor density), arithmetic mean, relative to saturating GLP-1 (1 μM)) | SMILES
47 nM | 83% | 1000 nM | 83% |  |  | COCCn1c(CN2CCC(c3cccc4c3OC(C)(c3ccccc3)O4)CC2)nc2ccc(C(=O)O)cc21 (stereo not shown) [Example 82, 1-(2-methoxyethyl)-2-{[4-(2-methyl-2-phenyl-1,3-benzodioxol-4-yl)piperidin-1-yl]methyl}-1H-benzimidazole-6-carboxylic acid]
24 nM | 91% | 410 nM | 100% |  |  | COCCn1c(CN2CCC(c3cccc4c3OC(C)(c3ccccc3Cl)O4)CC2)nc2ccc(C(=O)O)cc21 (stereo not shown) [Example 86, 2-({4-[2-(2-chlorophenyl)-2-methyl-1,3-benzodioxol-4-yl]piperidin-1-yl}methyl)-1-(2-methoxyethyl)-1H-benzimidazole-6-carboxylic acid]
17 nM | 86% | 360 nM | 91% |  |  | COCCn1c(CN2CCC(c3cccc4c3OC(C)(c3ccccc3C)O4)CC2)nc2ccc(C(=O)O)cc21 (stereo not shown) [Example 88, 1-(2-methoxyethyl)-2-({4-[2-methyl-2-(2-methylphenyl)-1,3-benzodioxol-4-yl]piperidin-1-yl}methyl)-1H-benzimidazole-6-carboxylic acid]
130 nM | 85% | 2900 nM | 87% |  |  | COCCn1c(CN2CCC(c3cccc4c3OC(C)(c3ccccn3)O4)CC2)nc2ccc(C(=O)O)cc21 (stereo not shown) [Example 89, 1-(2-methoxyethyl)-2-({4-[2-methyl-2-(pyridin-2-yl)-1,3-benzodioxol-4-yl]piperidin-1-yl}methyl)-1H-benzimidazole-6-carboxylic acid]
14000 nM | 100% | > 20000 nM |  |  |  | COCCn1c(CN2CCC(c3cccc4c3OC(C)(c3ccc(Cl)cn3)O4)CC2)nc2ccc(C(=O)O)cc21 (stereo not shown) [Example 91, ammonium 2-({4-[2-(5-chloropyridin-2-yl)-2-methyl-1,3-benzodioxol-4-yl]piperidin-1-yl}methyl)-1-(2-methoxyethyl)-1H-benzimidazole-6-carboxylate]
4.2 nM |  | 72 nM | 83% | 90% |  | COCCn1c(CN2CCC(c3cccc4c3OC(C)(c3ccc(Cl)cn3)O4)CC2)nc2ccc(C(=O)O)cc21.N (stereo not shown) [Example 92, ammonium 2-({4-[2-(5-chloropyridin-2-yl)-2-methyl-1,3-benzodioxol-4-yl]piperidin-1-yl}methyl)-1-(2-methoxyethyl)-1H-benzimidazole-6-carboxylate]
12 nM |  | 360 nM | 87% |  |  | COCCn1c(CN2CCC(c3cccc4c3OC(C)(c3ccc(C#N)cn3)O4)CC2)nc2ccc(C(=O)O)cc21 (stereo not shown) [Example 94, ammonium 2-({4-[2-(5-cyanopyridin-2-yl)-2-methyl-1,3-benzodioxol-4-yl]piperidin-1-yl}methyl)-1-(2-methoxyethyl)-1H-benzimidazole-6-carboxylate]

Second part, the compound before the results:

SMILES | EC50 [1] | Emax [1] | EC50 [2, 3] | Emax [2, 4] | Assay 1 Emax (%) [1] | Assay 2 Emax (%) ([2]; CHO GLP-1R Clone C6 (low receptor density), arithmetic mean, relative to saturating GLP-1 (1 μM))
CC1(c2ccc(Cl)cc2F)Oc2cccc(C3CCN(Cc4nc5ccc(C(=O)O)cc5n4CCO)CC3)c2O1 (stereo not shown) [Example 75, 2-({4-[2-(4-chloro-2-fluorophenyl)-2-methyl-1,3-benzodioxol-4-yl]piperidin-1-yl}methyl)-1-(2-hydroxyethyl)-1H-benzimidazole-6-carboxylic acid] | 65 nM | 82% | 1000 nM | 71% |  | 
CCn1nncc1Cn1c(CN2CCC(c3cccc4c3OC(C)(c3ccc(Cl)cc3F)O4)CC2)nc2ccc(C(=O)O)cc21 (stereo not shown) [Example 76, 2-({4-[2-(4-chloro-2-fluorophenyl)-2-methyl-1,3-benzodioxol-4-yl]piperidin-1-yl}methyl)-1-[(1-ethyl-1H-1,2,3-triazol-5-yl)methyl]-1H-benzimidazole-6-carboxylic acid] | 0.77 nM | 93% | 7.6 nM | 100% |  | 
Cn1cnc(Cn2c(CN3CCC(c4cccc5c4OC(C)(c4ccc(Cl)cc4F)O5)CC3)nc3ccc(C(=O)O)cc32)c1 (stereo not shown) [Example 77, 2-({4-[2-(4-chloro-2-fluorophenyl)-2-methyl-1,3-benzodioxol-4-yl]piperidin-1-yl}methyl)-1-[(1-methyl-1H-imidazol-4-yl)methyl]-1H-benzimidazole-6-carboxylic acid] | 53 nM | 89% | 1700 nM | 92% |  | 
Cn1cnnc1Cn1c(CN2CCC(c3cccc4c3OC(C)(c3ccc(Cl)cc3F)O4)CC2)nc2ccc(C(=O)O)cc21 (stereo not shown) [Example 78, 2-({4-[2-(4-chloro-2-fluorophenyl)-2-methyl-1,3-benzodioxol-4-yl]piperidin-1-yl}methyl)-1-[(4-methyl-4H-1,2,4-triazol-3-yl)methyl]-1H-benzimidazole-6-carboxylic acid] | 4.5 nM | 89% | 78 nM | 100% |  | 
CC1(c2ccc(Cl)cc2F)Oc2cccc(C3CCN(Cc4nc5ccc(C(=O)O)cc5n4C[C@@H]4CCCO4)CC3)c2O1 (stereo partly drawn) [Example 79, 2-({4-[2-(4-chloro-2-fluorophenyl)-2-methyl-1,3-benzodioxol-4-yl]piperidin-1-yl}methyl)-1-[(2S)-tetrahydrofuran-2-ylmethyl]-1H-benzimidazole-6-carboxylic acid] | 1.4 nM | 85% | 21 nM | 85% |  | 
CC1(c2ccc(Cl)cc2F)Oc2cccc(C3CCN(Cc4nc5ccc(C(=O)O)cc5n4Cc4ncco4)CC3)c2O1 (stereo not shown) [Example 80, 2-({4-[2-(4-chloro-2-fluorophenyl)-2-methyl-1,3-benzodioxol-4-yl]piperidin-1-yl}methyl)-1-(1,3-oxazol-2-ylmethyl)-1H-benzimidazole-6-carboxylic acid] | 1.1 nM | 87% | 6.9 nM | 96% |  | 
CC1(c2ccc(Cl)cc2F)Oc2cccc(C3CCN(Cc4nc5ccc(C(=O)O)nc5n4Cc4cnco4)CC3)c2O1 (stereo not shown) [Example 81, 2-({4-[2-(4-chloro-2-fluorophenyl)-2-methyl-1,3-benzodioxol-4-yl]piperidin-1-yl}methyl)-3-(1,3-oxazol-5-ylmethyl)-3H-imidazo[4,5-b]pyridine-5-carboxylic acid] | 29 nM | 110% | 54 nM | 110% |  | 
COCCn1c(CN2CCC(c3cccc4c3OC(C)(c3ccc(OC)cc3Cl)O4)CC2)nc2ccc(C(=O)O)cc21 (stereo not shown) [Example 83, 2-({4-[2-(2-chloro-4-methoxyphenyl)-2-methyl-1,3-benzodioxol-4-yl]piperidin-1-yl}methyl)-1-(2-methoxyethyl)-1H-benzimidazole-6-carboxylic acid] | 3.4 nM | 85% | 44 nM | 88% |  | 
COCCn1c(CN2CCC(c3cccc4c3OC(C)(c3ccc(C)cc3)O4)CC2)nc2ccc(C(=O)O)cc21 (stereo not shown) [Example 84, 1-(2-methoxyethyl)-2-({4-[2-methyl-2-(4-methylphenyl)-1,3-benzodioxol-4-yl]piperidin-1-yl}methyl)-1H-benzimidazole-6-carboxylic acid] | 9.1 nM | 93% | 100 nM | 86% |  | 
COCCn1c(CN2CCC(c3cccc4c3OC(C)(c3ccc(C#N)cn3)O4)CC2)nc2ccc(C(=O)O)cc21 (stereo not shown) [Example 93, ammonium 2-({4-[2-(5-cyanopyridin-2-yl)-2-methyl-1,3-benzodioxol-4-yl]piperidin-1-yl}methyl)-1-(2-methoxyethyl)-1H-benzimidazole-6-carboxylate] | > 6500 nM | 84% | > 20000 nM |  |  | 
CC1(c2ccc(C#N)cc2F)Oc2cccc(C3CCN(Cc4nc5ccc(C(=O)O)cc5n4Cc4ncco4)CC3)c2O1 (stereo not shown) [Example 98, ammonium 2-({4-[2-(4-cyano-2-fluorophenyl)-2-methyl-1,3-benzodioxol-4-yl]piperidin-1-yl}methyl)-1-(1,3-oxazol-2-ylmethyl)-1H-benzimidazole-6-carboxylate] | 50 nM | 97% | 440 nM | 95% |  | 
CC1(c2ccc(C#N)cc2F)Oc2cccc(C3CCN(Cc4nc5ccc(C(=O)O)cc5n4Cc4ncco4)CC3)c2O1.N (stereo not shown) [Example 99, ammonium 2-({4-[2-(4-cyano-2-fluorophenyl)-2-methyl-1,3-benzodioxol-4-yl]piperidin-1-yl}methyl)-1-(1,3-oxazol-2-ylmethyl)-1H-benzimidazole-6-carboxylate] | 2.8 nM |  | 5.4 nM |  | 99% | 91%

Source: patent US10676465B2, “GLP-1 receptor agonists and uses thereof” (Pfizer Inc., priority 2018, dated 2020)
